Results published in patent US20160106789A1, “Inhibition of Neurodegenerative Disease by Grape Seed Extract, Green Tea Extract and Probiotic Bacteria” (priority 2013, published 2016).
Counter-ions that a name gives are not always drawn.

Assays:
Alzheimer patients = test: Effect on an Alzheimer patient: cognitive state and mini-mental state examination (MMSE); assay type: in vivo, human; details: daily, discontinued after two weeks; person, MMSE 13
Experimental: Six weeks after the diagnosis, the patient's condition continued to deteriorate. The patient was administered memantine hydrochloride (Ebixa® tablet), an antidementia medicine, on a daily basis. Blood-pressure reducing medication was concomitantly administered and the blood pressure was measured to be on the average of 130/70 systolic/diastolic. However, the patient's deterioration appeared to be unaffected by the drug and administration of Ebixa was consequently discontinued after two weeks.
The following four months were characterized by sporadic memory lapses typical of a moderately severe affliction as well as behavioral deteriorations that occurred from time to time
Consequently, the blood-pressure reducing medication was discontinued and the administration of GSE was reduced to one capsule per day (300 mg) as GSE is known to reduce blood pressure.

amyloid fibrils = details: in-vitro; cited from earlier work
[1] = General effect on mental faculties (memory) of a first subject; assay type: in vivo, human; details: 100 mg once daily over 40 days, after nocturnal sleep, same subject after ceasing GSE
Experimental: A first subject consumed a capsule containing 300 mg of Meganatural-BP® over a period of 18 months, once daily, immediately after nocturnal sleep. […] The same subject ceased to consume GSE and immediately subsequent consumed capsules of 100 mg EGCG (Lyan) over a period of 40 days, once daily, immediately after nocturnal sleep. 300 mg of Meganatural-BP® and 60 mg of EGCG capsules were concomitantly administered to the same subject, immediately after nocturnal sleep, following the EGCG regime.

β-amyloid peptides = details: cited from earlier work

With CC12CC3CC(C)(C1)CC(N)(C3)C2 [memantine hydrochloride] the “patient's deterioration” value (Alzheimer patients) was “unaffected”.
For Epigallocatechin-3-gallate [EGCG], the “formation of β-sheet rich aggregation products such as amyloid fibrils” value (amyloid fibrils) is listed as “prevented”, the improvement of memory [1] is listed as “No improvement of memory” and the “generation of β-amyloid peptides” value (β-amyloid peptides) is listed as “reduces”.
